Data published in PubChem BioAssay AID1259407 (Chemical Carcinogenesis Research Information System (CCRIS), 2018).
The source made the active and inactive calls. The rule behind the calls is not given here.

Tested on: CCRIS mutagenicity, Ames/micronucleus/aberration tests
Test: CCRIS mutagenicity studies
[1] = Test System: AMES SALMONELLA TYPHIMURIUM, Strain/Indicator: TA98, Metabolic Activation: NONE, Method: PREINCUBATION
[2] = Test System: AMES SALMONELLA TYPHIMURIUM, Strain/Indicator: TA100, Metabolic Activation: NONE, Method: PREINCUBATION
[3] = Test System: AMES SALMONELLA TYPHIMURIUM, Strain/Indicator: TA98(1,8-DNP6), Metabolic Activation: NONE, Method: STANDARD PLATE
[4] = Test System: AMES SALMONELLA TYPHIMURIUM, Strain/Indicator: TA98(NR), Metabolic Activation: NONE, Method: STANDARD PLATE
[5] = Test System: AMES SALMONELLA TYPHIMURIUM, Strain/Indicator: TA98, Metabolic Activation: NONE, Method: STANDARD PLATE
[6] = Test System: AMES SALMONELLA TYPHIMURIUM, Strain/Indicator: TA100, Metabolic Activation: NONE, Method: STANDARD PLATE
[7] = Test System: AMES SALMONELLA TYPHIMURIUM, Strain/Indicator: TA100, Metabolic Activation: RAT, LIVER, S-9, AROCLOR 1254, Method: PREINCUBATION

For `O=C(O)c1cc(Cl)cc(Cl)c1`, the mutagenic call [1] was “inactive; negative”, the mutagenic call (Test System: AMES SALMONELLA TYPHIMURIUM, Strain/Indicator: TA98, Metabolic Activation: RAT LIVER S-9, PCB, Method: PREINCUBATION) was “inactive; negative” and the mutagenic call [2] was “inactive; negative”. For the same molecule, the mutagenic call (Test System: AMES SALMONELLA TYPHIMURIUM, Strain/Indicator: TA100, Metabolic Activation: RAT LIVER S-9, PCB, Method: PREINCUBATION) was “inactive; negative”, the mutagenic call (Test System: AMES SALMONELLA TYPHIMURIUM, Strain/Indicator: TA104, Metabolic Activation: NONE, Method: PREINCUBATION) was “inactive; negative” and the mutagenic call (Test System: AMES SALMONELLA TYPHIMURIUM, Strain/Indicator: TA104, Metabolic Activation: RAT LIVER S-9, PCB, Method: PREINCUBATION) was “inactive; negative”. The mutagenic call (Test System: E.COLI, Strain/Indicator: WP2 UVRA, Metabolic Activation: NONE, Method: PREINCUBATION) was “inactive; negative” and the mutagenic call (Test System: E.COLI, Strain/Indicator: WP2 UVRA, Metabolic Activation: RAT LIVER S-9, PCB, Method: PREINCUBATION) was “inactive; negative”.
With `O=[N+]([O-])c1cc2c3c(ccc4cccc(c43)CC2)c1` the mutagenic call [3] was “active; positive”, the mutagenic call [4] was “active; positive” and the mutagenic call [5] was “active; positive”.
In the case of `Cc1ccc2cc3c(ccc4ccccc43)c3c2c1CC3=O`, the mutagenic call (Test System: CHINESE HAMSTER V-79, Strain/Indicator: V-79/8-AZAGUANINE, Metabolic Activation: RAT, LIVER, S-9, AROCLOR 1254, Method: STANDARD PLATE) is reported as “active; positive”.
`O=C([O-])c1cc(N=Nc2ccc(-c3ccc(N/N=c4/c(=O)cc/c(=N\Nc5cc(S(=O)(=O)[O-])ccc5[O-])c4=O)cc3)cc2)ccc1[O-].[Cu+2].[Na+].[Na+]` was tested, and the mutagenic call (End Point: IN VITRO CHROMOSOMAL ABERRATIONS, Test System: CHINESE HAMSTER OVARY CELLS, Metabolic Activation: NONE) was “inactive; negative”, the mutagenic call (End Point: IN VITRO CHROMOSOMAL ABERRATIONS, Test System: CHINESE HAMSTER OVARY CELLS, Metabolic Activation: RAT, LIVER, S-9, AROCLOR 1254) was “inactive; negative” and the mutagenic call (Test System: AMES SALMONELLA TYPHIMURIUM, Strain/Indicator: TA98, Metabolic Activation: HAMSTER, LIVER, S-9, Method: PREINCUBATION (PRIVAL METHOD)) was “active; positive”. For the same molecule, the mutagenic call [5] was “inactive; negative”, the mutagenic call (Test System: AMES SALMONELLA TYPHIMURIUM, Strain/Indicator: TA98, Metabolic Activation: RAT, LIVER, S-9, AROCLOR 1254, Method: STANDARD PLATE) was “inactive; negative” and the mutagenic call [6] was “inactive; negative”. The mutagenic call (Test System: AMES SALMONELLA TYPHIMURIUM, Strain/Indicator: TA100, Metabolic Activation: RAT, LIVER, S-9, AROCLOR 1254, Method: STANDARD PLATE) was “inactive; negative”, the mutagenic call (Test System: AMES SALMONELLA TYPHIMURIUM, Strain/Indicator: TA1535, Metabolic Activation: NONE, Method: STANDARD PLATE) was “inactive; negative” and the mutagenic call (Test System: AMES SALMONELLA TYPHIMURIUM, Strain/Indicator: TA1535, Metabolic Activation: RAT, LIVER, S-9, AROCLOR 1254, Method: STANDARD PLATE) was “inactive; negative”. The mutagenic call (Test System: AMES SALMONELLA TYPHIMURIUM, Strain/Indicator: TA1537, Metabolic Activation: NONE, Method: STANDARD PLATE) was “inactive; negative”, the mutagenic call (Test System: AMES SALMONELLA TYPHIMURIUM, Strain/Indicator: TA1537, Metabolic Activation: RAT, LIVER, S-9, AROCLOR 1254, Method: STANDARD PLATE) was “inactive; negative” and the mutagenic call (Test System: AMES SALMONELLA TYPHIMURIUM, Strain/Indicator: TA1538, Metabolic Activation: NONE, Method: STANDARD PLATE) was “inactive; negative”. The mutagenic call (Test System: AMES SALMONELLA TYPHIMURIUM, Strain/Indicator: TA1538, Metabolic Activation: RAT, LIVER, S-9, AROCLOR 1254, Method: STANDARD PLATE) was “inactive; negative”.
With `O=[N+]([O-])c1ccc2ccc3cccc([N+](=O)[O-])c3c2c1` the mutagenic call [3] was “active; positive”, the mutagenic call [4] was “active; positive” and the mutagenic call [5] was “active; positive”. The mutagenic call [6] was “active; positive”, the mutagenic call (Test System: AMES SALMONELLA TYPHIMURIUM, Strain/Indicator: YG1021, Metabolic Activation: NONE, Method: STANDARD PLATE) was “active; positive” and the mutagenic call (Test System: AMES SALMONELLA TYPHIMURIUM, Strain/Indicator: YG1024, Metabolic Activation: NONE, Method: STANDARD PLATE) was “active; positive”. For the same molecule, the mutagenic call (Test System: AMES SALMONELLA TYPHIMURIUM, Strain/Indicator: YG1026, Metabolic Activation: NONE, Method: STANDARD PLATE) was “active; positive” and the mutagenic call (Test System: AMES SALMONELLA TYPHIMURIUM, Strain/Indicator: YG1029, Metabolic Activation: NONE, Method: STANDARD PLATE) was “active; positive”.
In the case of `O=[N+]([O-])c1ccccc1O`, the mutagenic call (Test System: AMES SALMONELLA TYPHIMURIUM, Strain/Indicator: TA98, Metabolic Activation: HAMSTER, LIVER, S-9, AROCLOR 1254, FLAVIN MONONUCLEOTIDE, Method: PREINCUBATION) is reported as “inactive; negative”, the mutagenic call [1] is reported as “inactive; negative” and the mutagenic call (Test System: AMES SALMONELLA TYPHIMURIUM, Strain/Indicator: TA98, Metabolic Activation: RAT, LIVER, S-9, KANECHLOR 500, Method: PREINCUBATION) is reported as “inactive; negative”. For the same molecule, the mutagenic call (Test System: AMES SALMONELLA TYPHIMURIUM, Strain/Indicator: TA98, Method: PREINCUBATION) was “inactive; negative”, the mutagenic call (Test System: AMES SALMONELLA TYPHIMURIUM, Strain/Indicator: TA100, Metabolic Activation: HAMSTER, LIVER, S-9, AROCLOR 1254, FLAVIN MONONUCLEOTIDE, Method: PREINCUBATION) was “inactive; negative” and the mutagenic call [2] was “inactive; negative”. For the same molecule, the mutagenic call (Test System: AMES SALMONELLA TYPHIMURIUM, Strain/Indicator: TA100, Metabolic Activation: RAT, LIVER, S-9, KANECHLOR 500, Method: PREINCUBATION) was “inactive; negative”, the mutagenic call (Test System: AMES SALMONELLA TYPHIMURIUM, Strain/Indicator: TA100, Method: PREINCUBATION) was “inactive; negative” and the mutagenic call (Test System: AMES SALMONELLA TYPHIMURIUM, Strain/Indicator: TA1535, Metabolic Activation: NONE, Method: PREINCUBATION) was “inactive; negative”. The mutagenic call (Test System: AMES SALMONELLA TYPHIMURIUM, Strain/Indicator: TA1535, Method: PREINCUBATION) was “inactive; negative”, the mutagenic call (Test System: AMES SALMONELLA TYPHIMURIUM, Strain/Indicator: TA1537, Metabolic Activation: NONE, Method: PREINCUBATION) was “inactive; negative” and the mutagenic call (Test System: AMES SALMONELLA TYPHIMURIUM, Strain/Indicator: TA1537, Method: PREINCUBATION) was “inactive; negative”. For the same molecule, the mutagenic call (Test System: AMES SALMONELLA TYPHIMURIUM, Strain/Indicator: TA1538, Metabolic Activation: NONE, Method: PREINCUBATION) was “inactive; negative” and the mutagenic call (Test System: AMES SALMONELLA TYPHIMURIUM, Strain/Indicator: TA1538, Method: PREINCUBATION) was “inactive; negative”.
In the case of `CN(C)c1ccc(/C=C/C=O)cc1`, the mutagenic call [2] is reported as “inactive; negative” and the mutagenic call [7] is reported as “inactive; negative”.
In the case of `CC1C=CC(=O)O1` (stereo not given), the mutagenic call [1] is reported as “inactive; negative”, the mutagenic call (Test System: AMES SALMONELLA TYPHIMURIUM, Strain/Indicator: TA98, Metabolic Activation: RAT, LIVER, S-9, AROCLOR 1254, Method: PREINCUBATION) is reported as “inactive; negative” and the mutagenic call [2] is reported as “inactive; negative”. The mutagenic call [7] was “inactive; negative”, the mutagenic call (Test System: AMES SALMONELLA TYPHIMURIUM, Strain/Indicator: TA102, Metabolic Activation: NONE, Method: PREINCUBATION) was “inactive; negative” and the mutagenic call (Test System: AMES SALMONELLA TYPHIMURIUM, Strain/Indicator: TA102, Metabolic Activation: RAT, LIVER, S-9, AROCLOR 1254, Method: PREINCUBATION) was “inactive; negative”.
